Measured values from US7410655B2, “Anticancer agent” (Nobel Limited Liability Company, priority 2001, dated 2008).

System: PA-23 rhabdomyosarcoma
Experiment: PA-23 rhabdomyosarcoma lung metastases after inoculation in the caudal vein of rats
Type: in vivo
Details: Example 2; 0.003 mg/ml in sodium chloride isotonic solution
Description: The preparation anti-tumor action was tested on female white rats.
The PA-23 rhabdomyosarcoma cell suspension was inoculated in the caudal vein of all rats, being generally used as a model for investigating the ability of such preparations to inhibit stroma development, which is characteristic of most malignant tumors.
All the animals were divided into 5 groups. On the following day after the inoculation a physiological solution was intra-abdominal injected into the rats of Group 1 (0.5 ml per animal); 0.1 ml of the preparation—into the rats of Group 2, 0.3 ml of the preparation—into the rats of Group 3; 0.5 ml of the preparation—into the rats of Group 4; and 0.8 ml of the preparation—into the rats of Group 5. Prior to administration the preparation had been diluted with a physiological solution in the ratio of 1 to 10.
Subsequent administration of the preparation […] was carried out every third day. On the 20 th day following the tumoral inoculation the rats were destroyed. Their bodies were dissected, the number of metastases in their lungs calculated and their respective weight determined by means of analytical balance weighing.
As in Example 1, the PA-23 rhabdomyosarcomas were used as a model. Tumoral inoculation was performed in a similar way. The laboratory animals were also divided into groups. The sodium chloride isotonic solution was injected into Group 1 (control), potassium tetrachloroplatinate in the sodium chloride isotonic solution—into Group 2, ammonium lignohumic acid salts in the sodium chloride isotonic solution were injected into Group 3, injections of the proposed preparation diluted with a physiological solution in the ratio of 1 to 10 were given to Group 4.

[Cl][Pt-2]([Cl])([Cl])[Cl].[K+].[K+] [Potassium tetrachloroplatinate solution, potassium tetrachloroplatinate]
Average number of metastases per rat: 33.2 ± 6.2 | Average weight of 1 metastasis: 42.9 ± 4.3 mg | Average weight of 1 metastasis, % of the Control Group: 88.5% | Number of metastases: 531
